Data: PMC2918227 (Bioorganic & medicinal chemistry, 2010)

Legend:
human 5-HT2A receptor = human 5-HT2A receptor (Homo sapiens, UniProt P28223); assay: 5HT2A Ke determination in FLIPR assay; format: cell-based
[1] = Stability of the isolated free base on storage; format: physicochemical; details: yellow oil, converted to hydrochloride salt for long-term storage

human 5-HT2A receptor, sequence (P28223 whole entry): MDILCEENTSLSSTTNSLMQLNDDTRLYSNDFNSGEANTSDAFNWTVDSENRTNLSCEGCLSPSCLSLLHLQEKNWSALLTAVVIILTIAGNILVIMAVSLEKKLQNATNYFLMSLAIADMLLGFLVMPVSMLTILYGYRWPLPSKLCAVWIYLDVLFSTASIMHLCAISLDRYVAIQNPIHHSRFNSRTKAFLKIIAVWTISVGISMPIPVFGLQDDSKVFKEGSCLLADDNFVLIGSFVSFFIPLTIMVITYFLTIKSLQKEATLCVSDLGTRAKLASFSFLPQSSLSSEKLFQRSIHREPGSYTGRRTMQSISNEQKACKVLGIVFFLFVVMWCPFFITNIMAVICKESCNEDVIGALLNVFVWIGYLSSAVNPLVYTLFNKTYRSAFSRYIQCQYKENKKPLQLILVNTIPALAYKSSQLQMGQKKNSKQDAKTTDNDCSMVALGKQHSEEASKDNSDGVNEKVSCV

| SMILES | Kb (human 5-HT2A receptor) | stability of the compound [1] |
| --- | --- | --- |
| COc1cc2c3c(c1OC)-c1cc4c(cc1CC3N(C(C)=O)CC2)OCO4 (stereo not drawn) [Compound 8c, 1,2-dimethoxy-6-acetyl-5,6,6a,7-tetrahydro-4H-benzo[de][1,3]benzodioxolo[5,6-g]quinoline] | > 10 µM |  |
| COc1cc2c3c(c1OC)-c1cc4c(cc1CC3NCC2)OCO4 (stereo not drawn) [Compound 8a, 1,2-dimethoxy-5,6,6a,7-tetrahydro-4H-benzo[de][1,3]benzodioxolo[5,6-g]quinoline] |  | unstable |
| COc1cc2c3c(c1OC)-c1cc4c(cc1CC3N(S(C)(=O)=O)CC2)OCO4 (stereo not drawn) [Compound 8d, 1,2-dimethoxy-6-methanesulfonyl-5,6,6a,7-tetrahydro-4H-benzo[de][1,3]benzodioxolo[5,6-g]quinoline] | > 10 µM |  |
